From US8871753B2, “Macrocyclic compounds and their use as kinase inhibitors” (Incyte Corporation, priority 2008, dated 2014)
pIC50: −log10 of the molar value.

Key:
[1] = molecular target: T1, human JAK1 (a.a. 837-1142) (Homo sapiens, UniProt P23458); assay: In vitro JAK kinase assay (HTRF, phosphorylation of a biotinylated peptide), JAK1; assay type: biochemical; conditions: Table D1; read-out: JAK1 IC50
T1 construct: human JAK1 (a.a. 837-1142); His tag (N); made in house; host or cells: insect cells (baculovirus)
Description: (§1) The catalytic activity of JAK1, JAK2 or JAK3 was assayed by measuring the phosphorylation of a biotinylated peptide. The phosphorylated peptide was detected by homogenous time resolved fluorescence (HTRF). […] The ATP concentration in the reactions was 90 μM for JAK1, 30 μM for JAK2 and 3 μM for JAK3. Reactions were carried out at room temperature for 1 hr and then stopped with 20 μL 45 mM EDTA, 300 nM SA-APC, 6 nM Eu-Py20 in assay buffer (Perkin Elmer, Boston, Mass.). Binding to the Europium labeled antibody took place for 40 minutes and HTRF signal was measured on a Fusion plate reader (Perkin Elmer, Boston, Mass.).
(§2) The catalytic activity of JAK1, JAK2 or JAK3 was assayed by measuring the phosphorylation of a biotinylated peptide. The phosphorylated peptide was detected by homogenous time resolved fluorescence (HTRF). […] Reactions were carried out at room temperature for 1 hr and then stopped with 20 μL 45 mM EDTA, 300 nM SA-APC, 6 nM Eu-Py20 in assay buffer (Perkin Elmer, Boston, Mass.). Binding to the Europium labeled antibody took place for 40 minutes and HTRF signal was measured on a Fusion plate reader (Perkin Elmer, Boston, Mass.).

[2] = molecular target: T2, human JAK2 (a.a. 828-1132) (Homo sapiens, UniProt O60674); assay: In vitro JAK kinase assay (HTRF, phosphorylation of a biotinylated peptide), JAK2; assay type: biochemical; conditions: Table D1
T2 construct: JAK2 (a.a. 828-1132); His tag (N); made in house; host or cells: insect cells (baculovirus)
Description: as §1, §2

T1 sequence (P23458 849-1154): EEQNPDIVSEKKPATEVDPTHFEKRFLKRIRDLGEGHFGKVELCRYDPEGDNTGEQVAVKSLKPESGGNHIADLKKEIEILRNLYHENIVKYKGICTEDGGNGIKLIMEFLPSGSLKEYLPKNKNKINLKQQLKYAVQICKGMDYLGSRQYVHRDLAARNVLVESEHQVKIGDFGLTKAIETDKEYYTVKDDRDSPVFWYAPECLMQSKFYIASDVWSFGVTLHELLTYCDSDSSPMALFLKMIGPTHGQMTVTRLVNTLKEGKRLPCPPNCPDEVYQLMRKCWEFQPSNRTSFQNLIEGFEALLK
T2 sequence (O60674 828-1132): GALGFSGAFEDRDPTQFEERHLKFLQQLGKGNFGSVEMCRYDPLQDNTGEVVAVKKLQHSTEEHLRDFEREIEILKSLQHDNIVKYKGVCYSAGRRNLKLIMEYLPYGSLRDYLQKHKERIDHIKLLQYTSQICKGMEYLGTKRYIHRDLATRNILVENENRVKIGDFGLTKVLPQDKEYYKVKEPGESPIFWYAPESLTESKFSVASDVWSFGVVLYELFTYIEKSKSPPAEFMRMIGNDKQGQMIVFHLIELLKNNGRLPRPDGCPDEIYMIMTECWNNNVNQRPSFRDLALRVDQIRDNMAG

Structure (SMILES): O=C(C[C@@H]1CCN(C(=O)Nc2cccnc2)C1)Nc1ccc2cc1CCc1cncc(c1)Nc1ncc(Cl)c(n1)N2 [Example D117, (3S)-3-(2-{[6-Chloro-2,4,8,18,22-pentaazatetracyclo[14.3.1.1(3,7).1(9,13)]docosa-1(20),3(22),4,6,9(21),10,12,16,18-nonaen-12-yl]amino}-2-oxoethyl)-N-pyridin-3-ylpyrrolidine-1-carboxamide tris(trifluoroacetate)]
- pIC50 [1]: 7.41
- pIC50 [2]: 6.41

Structure (SMILES): O=C(C[C@@H]1CCN(C(=O)Nc2ccc(F)cc2)C1)Nc1ccc2cc1CCc1cncc(c1)Nc1ncc(Cl)c(n1)N2 [Example D118, (3S)-3-(2-{[6-Chloro-2,4,8,18,22-pentaazatetracyclo[14.3.1.1(3,7).1(9,13)]docosa-1(20),3(22),4,6,9(21),10,12,16,18-nonaen-12-yl]amino}-2-oxoethyl)-N-(4-fluorophenyl)pyrrolidine-1-carboxamide bis(trifluoroacetate)]
- pIC50 [1]: 7.92
- pIC50 [2]: 6.63

Structure (SMILES): O=C(C[C@@H]1CCN(C(=O)Nc2cccc(F)c2)C1)Nc1ccc2cc1CCc1cncc(c1)Nc1ncc(Cl)c(n1)N2 [Example D119, (3S)-3-(2-{[6-Chloro-2,4,8,18,22-pentaazatetracyclo[14.3.1.1(3,7).1(9,13)]docosa-1(20),3(22),4,6,9(21),10,12,16,18-nonaen-12-yl]amino}-2-oxoethyl)-N-(3-fluorophenyl)pyrrolidine-1-carboxamide bis(trifluoroacetate)]
- pIC50 [1]: 8.00
- pIC50 [2]: 6.70

Structure (SMILES): O=C(C[C@@H]1CCN(C(=O)c2ccno2)C1)Nc1ccc2cc1CCc1cncc(c1)Nc1ncc(Cl)c(n1)N2 [Example D120, N-[6-Chloro-2,4,8,18,22-pentaazatetracyclo[14.3.1.1(3,7).1(9,13)]docosa-1(20),3(22),4,6,9(21),10,12,16,18-nonaen-12-yl]-2-[(3S)-1-(isoxazol-5-ylcarbonyl)pyrrolidin-3-yl]acetamide bis(trifluoroacetate)]
- pIC50 [1]: 7.70
- pIC50 [2]: 6.40

Structure (SMILES): Cn1ccc(C(=O)N2CC[C@@H](CC(=O)Nc3ccc4cc3CCc3cncc(c3)Nc3ncc(Cl)c(n3)N4)C2)n1 [Example D121, N-[6-Chloro-2,4,8,18,22-pentaazatetracyclo[14.3.1.1(3,7).1(9,13)]docosa-1(20),3(22),4,6,9(21),10,12,16,18-nonaen-12-yl]-2-{(3S)-1-[(1-methyl-1H-pyrazol-3-yl)carbonyl]pyrrolidin-3-yl}acetamide bis(trifluoroacetate)]
- pIC50 [1]: 7.12
- pIC50 [2]: 6.26

Structure (SMILES): Cn1cc(C(=O)N2CC[C@@H](CC(=O)Nc3ccc4cc3CCc3cncc(c3)Nc3ncc(Cl)c(n3)N4)C2)cn1 [Example D122, N-[6-Chloro-2,4,8,18,22-pentaazatetracyclo[14.3.1.1(3,7).1(9,13)]docosa-1(20),3(22),4,6,9(21),10,12,16,18-nonaen-12-yl]-2-{(3S)-1-[(1-methyl-1H-pyrazol-4-yl)carbonyl]pyrrolidin-3-yl}acetamide bis(trifluoroacetate)]
- pIC50 [1]: 7.37
- pIC50 [2]: 6.30

Structure (SMILES): CS(=O)(=O)N1CC[C@@H](CC(=O)Nc2ccc3cc2CCc2cncc(c2)Nc2ncc(Cl)c(n2)N3)C1 [Example D127, N-[6-Chloro-2,4,8,18,22-pentaazatetracyclo[14.3.1.1(3,7).1(9,13)]docosa-1(20),3(22),4,6,9(21),10,12,16,18-nonaen-12-yl]-2-[(3S)-1-(methylsulfonyl)pyrrolidin-3-yl]acetamide bis(trifluoroacetate)]
- pIC50 [1]: 7.92
- pIC50 [2]: 6.70

Structure (SMILES): O=C(C[C@H]1CCN(C(=O)c2nc[nH]n2)C1)Nc1ccc2cc1CCc1cncc(c1)Nc1ncc(Cl)c(n1)N2 [Example D128, N-[6-Chloro-2,4,8,18,22-pentaazatetracyclo[14.3.1.1(3,7).1(9,13)]docosa-1(20),3(22),4,6,9(21),10,12,16,18-nonaen-12-yl]-2-[(3R)-1-(1H-1,2,4-triazol-3-ylcarbonyl)pyrrolidin-3-yl]acetamide bis(trifluoroacetate)]
- pIC50 [1]: 7.68
- pIC50 [2]: 6.70

Structure (SMILES): O=C(C[C@H]1CCN(C(=O)c2c[nH]nn2)C1)Nc1ccc2cc1CCc1cncc(c1)Nc1ncc(Cl)c(n1)N2 [Example D129-a, N-[6-Chloro-2,4,8,18,22-pentaazatetracyclo[14.3.1.1(3,7).1(9,13)]docosa-1(20),3(22),4,6,9(21),10,12,16,18-nonaen-12-yl]-2-[(3R)-1-(1H-1,2,3-triazol-4-ylcarbonyl)pyrrolidin-3-yl]acetamide bis(trifluoroacetate)]
- pIC50 [1]: 7.82
- pIC50 [2]: 7.08

Structure (SMILES): O=C(C[C@H]1CCN(C(=O)c2cn[nH]c2)C1)Nc1ccc2cc1CCc1cncc(c1)Nc1ncc(Cl)c(n1)N2 [Example D129-b, N-[6-Chloro-2,4,8,18,22-pentaazatetracyclo[14.3.1.1(3,7).1(9,13)]docosa-1(20),3(22),4,6,9(21),10,12,16,18-nonaen-12-yl]-2-[(3R)-1-(1H-pyrazol-4-ylcarbonyl)pyrrolidin-3-yl]acetamide bis(trifluoroacetate)]
- pIC50 [1]: 7.48
- pIC50 [2]: 6.22

Structure (SMILES): O=C(C[C@@H]1CCN(C(=O)c2nc[nH]n2)C1)Nc1ccc2cc1CCc1cncc(c1)Nc1ncc(Cl)c(n1)N2 [Example D131, N-[6-Chloro-2,4,8,18,22-pentaazatetracyclo[14.3.1.1(3,7).1(9,13)]docosa-1(20),3(22),4,6,9(21),10,12,16,18-nonaen-12-yl]-2-[(3S)-1-(1H-1,2,4-triazol-3-ylcarbonyl)pyrrolidin-3-yl]acetamide bis(trifluoroacetate)]
- pIC50 [1]: 8.07
- pIC50 [2]: 6.90

Structure (SMILES): O=C(C[C@@H]1CCN(C(=O)c2c[nH]nn2)C1)Nc1ccc2cc1CCc1cncc(c1)Nc1ncc(Cl)c(n1)N2 [Example D132, N-[6-Chloro-2,4,8,18,22-pentaazatetracyclo[14.3.1.1(3,7).1(9,13)]docosa-1(20),3(22),4,6,9(21),10,12,16,18-nonaen-12-yl]-2-[(3S)-1-(1H-1,2,3-triazol-4-ylcarbonyl)pyrrolidin-3-yl]acetamide bis(trifluoroacetate)]
- pIC50 [1]: 8.49
- pIC50 [2]: 7.37

Structure (SMILES): O=C(C[C@@H]1CCN(C(=O)c2cn[nH]c2)C1)Nc1ccc2cc1CCc1cncc(c1)Nc1ncc(Cl)c(n1)N2 [Example D133, N-[6-Chloro-2,4,8,18,22-pentaazatetracyclo[14.3.1.1(3,7).1(9,13)]docosa-1(20),3(22),4,6,9(21),10,12,16,18-nonaen-12-yl]-2-[(3S)-1-(1H-pyrazol-4-ylcarbonyl)pyrrolidin-3-yl]acetamide bis(trifluoroacetate)]
- pIC50 [1]: 7.14
- pIC50 [2]: 6.05

Structure (SMILES): O=C(C[C@@H]1CCN(C(=O)c2cc[nH]n2)C1)Nc1ccc2cc1CCc1cncc(c1)Nc1ncc(Cl)c(n1)N2 [Example D134, N-[6-Chloro-2,4,8,18,22-pentaazatetracyclo[14.3.1.1(3,7).1(9,13)]docosa-1(20),3(22),4,6,9(21),10,12,16,18-nonaen-12-yl]-2-[(3S)-1-(1H-pyrazol-3-ylcarbonyl)pyrrolidin-3-yl]acetamide bis(trifluoroacetate)]
- pIC50 [1]: 7.36
- pIC50 [2]: 6.45

Structure (SMILES): Cc1cc(C(=O)N2CCC[C@H](CC(=O)Nc3ccc4cc3CCc3cncc(c3)Nc3ncc(Cl)c(n3)N4)C2)no1 [Example D209, N-[6-Chloro-2,4,8,18,22-pentaazatetracyclo[14.3.1.1(3,7).1(9,13)]docosa-1(20),3(22),4,6,9(21),10,12,16,18-nonaen-12-yl]-2-{(3R)-1-[(5-methylisoxazol-3-yl)carbonyl]piperidin-3-yl}acetamide bis(trifluoroacetate)]
- pIC50 [1]: 7.19
- pIC50 [2]: 6.34

Structure (SMILES): O=C1c2ccccc2C(=O)N1CCS(=O)(=O)Nc1ccc2cc1CCc1cncc(c1)Nc1ncc(Cl)c(n1)N2 [Example D210, N-[6-Chloro-2,4,8,18,22-pentaazatetracyclo[14.3.1.1(3,7).1(9,13)]docosa-1(20),3(22),4,6,9(21),10,12,16,18-nonaen-12-yl]-2-(1,3-dioxo-1,3-dihydro-2H-isoindol-2-yl)ethanesulfonamide bis(trifluoroacetate)]
- pIC50 [1]: 9.00
- pIC50 [2]: 7.85

Structure (SMILES): O=C(C[C@@H]1CCCN(c2nc3ccccc3s2)C1)Nc1ccc2cc1CCc1cncc(c1)Nc1ncc(Cl)c(n1)N2 [Example D211, 2-[(3S)-1-(1,3-Benzothiazol-2-yl)piperidin-3-yl]-N-[6-chloro-2,4,8,18,22-pentaazatetracyclo[14.3.1.1(3,7).1(9,13)]docosa-1(20),3(22),4,6,9(21),10,12,16,18-nonaen-12-yl]acetamide tris(trifluoroacetate)]
- pIC50 [1]: 8.38
- pIC50 [2]: 6.80

Structure (SMILES): O=C(C[C@H]1CCCN(c2nc3ccccc3s2)C1)Nc1ccc2cc1CCc1cncc(c1)Nc1ncc(Cl)c(n1)N2 [Example D212, 2-[(3R)-1-(1,3-Benzothiazol-2-yl)piperidin-3-yl]-N-[6-chloro-2,4,8,18,22-pentaazatetracyclo[14.3.1.1(3,7).1(9,13)]docosa-1(20),3(22),4,6,9(21),10,12,16,18-nonaen-12-yl]acetamide tris(trifluoroacetate)]
- pIC50 [1]: 7.19
- pIC50 [2]: < 6.00
